In patent US20230270721A1, “INHIBITION OF BAX-MEDIATED CELL DEATH BY ELTROMBOPAG” (Albert Einstein College of Medicine, priority 2020, published 2023):

Legend:
BAX = target: T1, BAX (Homo sapiens, UniProt Q07812); test: Recombinant BAX TM (Tycho NT.6); format: binding; details: 1:10 BAX:EO
T1 construct: Human full-length (1-192) wild-type BAX (Q07812); made in house; host or cells: E. coli BL21 (DE3) CodonPlus (DE3)-RIPL
Procedure: Purified recombinant BAX ([…]) was combined with DMSO or EO (1:10 BAX:EO) and loaded into Tycho NT.6 (NanoTemper Technologies) capillaries. First derivative (330/350 nm) melting point curves were generated automatically using the Tycho NT.6 (NanoTemper Technologies). Data was exported and to GraphPad PRISM software for analysis and visualization.
To confirm direct engagement of BAX, Cellular Thermal Shift Assay (CETSA) was performed in BAK KO MEFs.

BAX-4C = target: T2, BAX-4C (Homo sapiens, UniProt Q07812, C126S/C62S/S4C); test: Microscale thermophoresis (MST) direct binding; details: 50 nM labeled BAX; read-out: dissociation constant KD
T2 construct: Human full-length (1-192) wild-type BAX (Q07812); made in house; host or cells: E. coli BL21 (DE3) CodonPlus (DE3)-RIPL
T2 sequence (Q07812 whole entry S4C/C62S/C126S): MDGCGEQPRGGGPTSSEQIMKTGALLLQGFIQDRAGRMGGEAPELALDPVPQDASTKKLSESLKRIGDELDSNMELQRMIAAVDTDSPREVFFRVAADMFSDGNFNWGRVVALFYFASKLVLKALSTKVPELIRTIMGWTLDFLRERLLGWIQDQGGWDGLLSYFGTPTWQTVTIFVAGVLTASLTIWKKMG
Procedure: Recombinant BAX C62S-C126S-S5C (4C), previously established for evaluating BAX (Garner, T.P., et al. Nat Chem Biol 15, 322-330 (2019)) binding compounds with MST, or BAX C62S-C126S-S5C-R134E-R145E (R134E-R145E-4C) was labeled at cysteine using the Monolith Protein Labeling Kit Red Maleimide (NanoTemper Technologies) according to the instructions of the manufacturer (Garner, T.P., et al. Nat Chem Biol 15, 322-330 (2019)). Briefly, 10 µM protein was incubated with 0.9 equivalents of dye in MST buffer (100 mM potassium phosphate, pH 7.4, 150 mM NaCI) in the dark at room temperature (22-25° C.) for 1 hr. […] Samples were loaded into standard glass capillaries (Monolith NT.155 Capillaries) and analyzed by MST using a Monolith NT.115 Blue/Red, LED power and IR laser power of 80%. Fraction bound and error was generated by NanoTemper software (MO.Affinity Analysis), and KD values were determined using GraphPad Prism nonlinear fit four-parameter agonist versus response with restraints for 0 and 1 fraction bound.
To test this hypothesis, a competitive fluorescence polarization assay (FPA) (Gavathiotis, E., et al. Nat Chem Biol 8, 639-645 (2012)) based on the interaction between BAX and fluorescently-labeled stapled BIM-BH3 peptide (FITC-BIM-SAHB) was used (Gavathiotis, E., et al. Nature 455, 1076-1081 (2008)). […]

[1] = test system: platelets of C57BL/6J mice; test: In vivo mouse platelet experiments; details: co-administration: ABT-263 25 mg/kg + EO 100 mg/kg then 50 mg/kg 3 hrs later, oral gavage, 24 hours
Procedure: Wild type black mice strain C57BL/6J were treated with vehicle, ABT-263 (25 mg/kg, single dose), EO (100 mg/kg, then 3 hrs later 50 mg/kg), or a combination of ABT-263 and EO. EO was formulated in dH2O, and ABT-263 was formulated in 10% ethanol, 30% polyethylene glycol 400, and 60% Phosal 50 PG. Both ABT-263 and EO were administered by oral gavage. Blood samples were collected by submandibular bleed before treatment and 24 hours following treatment, and CBC was acquired. Percentage platelet protection was calculated as follows: % Platelet Protection = (100)(Px - mPABT)/(mPv - mPABT) where Px is the platelet count for a given mouse, mPv is the mean vehicle treated platelet count, and mPABT is the mean ABT-263 treated platelet count. Statistical analysis was performed using one-way ANOVA with select multiple comparisons as shown.
Finally, whether EO can rescue thrombocytopenia induced by the activity of navitoclax was evaluated in mice. The use of navitoclax is limited by on-target toxicity triggering BAK/BAX-mediated platelet apoptosis (Zhang, H. et al. Cell Death Differ 14, 943-951 (2007)). […] This EO effect is distinct from its capacity to stimulate platelet production by differentiation of the megakaryocyte precursors and progenitor cells, which requires 5 days to begin (Erickson-Miller, C. L. et al. Stem Cells 27, 424-430 (2009); Jenkins, J. M. et al. Blood 109, 4739-4741 (2007)).

[2] = test system: human IPSC cardiomyocytes; test: Apoptosis detection (RealTime Glo) in doxorubicin-treated cardiomyocytes; format: cell-based; details: 5 µM Doxorubicin, 10 µM EO
BAX K21E = target: T3, BAX K21E (Homo sapiens, UniProt Q07812, K21E); test: Liposomal permeabilization assay, trigger site mutant K21E; format: biochemical; details: 250 nM BAX and 5 nM tBID
T3 construct: Human full-length (1-192) wild-type BAX (Q07812); made in house; host or cells: E. coli BL21 (DE3) CodonPlus (DE3)-RIPL
T3 sequence (Q07812 whole entry K21E): as the sequence (Q07812 whole entry S4C/C62S/C126S) above, with C4S, K21E, S62C, S126C counted along it
Procedure: Lipids (Avanti Polar Lipids) at the following ratio, phosphatidylcholine 48%, phosphatidylinositol 10%, dioleoyl phosphatidylserine 10%, phosphatidylethanolamine, 28%, and tetraoleoyl cardiolipin 4%, were mixed in a total of 1 mg, dried and resuspended in 10 mM HEPES, pH 7, 200 mM KCI, and 5 mM MgCl2 with 12.5 mM 8-aminonaphthalene-1,3,6-trisulfonic acid (ANTS) dye and 45 mM p-xylene-bis-pyridinium bromide (DPX) quencher (Molecular Probes) using a water bath sonicator. Liposomes were formed by extrusion of the suspension using Avanti Mini-Extruder (Cat # 610000) with polycarbonate membranes of 0.1 µm pore size (Avanti Polar Lipids). […] ANTS/DPX release was quantified based on the increase in fluorescence intensity that occurs when the ANTS fluorophore is separated from the DPX quencher upon release from the liposomes into solution. Fluorescence (λex = 355 nm and λem = 520 nm) was measured at 1 minute intervals at room temperature (22-25° C.) indicated using a Tecan Infinite M1000 plate reader. In the case of heat activation, reactions were set up as described in the absence of tBID or BIM, and experiments were recorded at 42° C. The percentage release of ANTS/DPX at any given time point was calculated as percentage release=((F-F0)/(F100-F0))(100), where F0 and F100 are baseline and maximal fluorescence, respectively. […]

[3] = test system: megakaryocyte precursors and progenitor cells; details: differentiation of megakaryocyte precursors and progenitor cells; cited from earlier work

T1 sequence (Q07812 whole entry): as the sequence (Q07812 whole entry S4C/C62S/C126S) above, with C4S, S62C, S126C counted along it

## CC1=NN(c2ccc(C)c(C)c2)C(=O)/C1=N\Nc1cccc(-c2cccc(C(=O)O)c2)c1O [EO, eltrombopag]
BAX
  change in TM of recombinant BAX: comparable reduction in TM
BAX-4C
  Kd: 143 nM
[1]
  navitoclax-induced platelet loss: markedly inhibited platelet loss to acceptable levels
[2]
  apoptosis (cell death) induced by doxorubicin: capable of inhibiting apoptosis
BAX K21E
  inhibition of liposomal release versus BAX WT: not reduced inhibition
[3]
  time for stimulation of platelet production to begin: 5 days
